Residues, ends and D or L forms follow the SMILES beside them. A value given as a limit tells only on which side of the number the result lay.

Consider `O=C(c1cccs1)C1(c2ccc(Cl)cc2)CCC1`, for which the melting point is 74 to 76 °C.

In the case of `CC1(C)[C@@H](CNc2ncccc2C#N)CC[C@@]1(C)NCC(=O)N1C[C@@H](F)C[C@H]1C#N`, the melting point was in the range of 96 to 99 °C.

`CN1Cc2c(-c3nc(CCl)co3)ncn2-c2cccc(Cl)c2C1=O` displayed a melting point of 249 to 251 °C.

As to `C=CCN(CC)C(=O)n1cnc(S(=O)(=O)CC)n1`, the melting point fell in the range of 39 to 41.5 °C.

Compound `Cc1cc(=O)c(OCc2ccccc2)c(C(=O)NC2CCC2)n1C` had a melting point of 221 to 222 °C.

The compound `COc1ccc(-c2cc(CCCN3CCN(C)CC3)c(=O)n(Cc3ccc(F)cc3)n2)cc1F` returned a melting point of 108 to 109 °C.

Take `CC(C)(CCc1ccccc1)NCC(O)c1ccc(O)c(C(N)=O)c1` (stereo not drawn): the melting point worked out at 154 °C.

`COc1cc2cc(-c3c[nH]c4ccccc34)cnc2cc1OC` registered a melting point of 204 to 206 °C.

`COc1cc(OC(C)C)ccc1-c1nc(-c2ccc(OC(C)C)cc2O)nc(-c2ccc(OC(C)C)cc2O)n1` displayed a melting point of 185 to 188 °C.

For the compound `CNC(=O)C(C)C(O)(Cn1cncn1)c1ccc(Cl)cc1Cl` (stereo not drawn), the melting point lay in the range of 242 to 244 °C.

`Fc1cc2c(Nc3ccc(OCc4cccc(Cl)c4)c(Cl)c3)ncnc2cn1` displayed a melting point of 196 to 198 °C.

In the case of `Cc1cc(C2=NNC(=O)SC2C)cc2c1NC(=O)C2(C)C` (stereo not drawn), the melting point worked out at 260 °C.

With `O=C(Nc1cc(Cl)ccc1S(=O)(=O)c1ccc(Cl)cc1)N[C@@H](Cc1ccc(NC(=O)c2c(Cl)cccc2Cl)cc1)C(=O)O`, the melting point came out at 239 °C.

Regarding `CC(C)=COc1ccc2c(C)cc(=O)oc2c1C(=O)C=Cc1cccnc1`, the melting point is 156 to 157 °C.

`N#CNC=Nc1ccc(-c2ccccn2)cc1` registered a melting point of 150 to 151 °C.

As to `COc1cc(C)ccc1S(=O)(=O)NC(=O)C(c1ccc2c(c1)OCO2)c1cn(C)c2ccc(Br)cc12` (stereo not drawn), the melting point was in the range of 145 to 150 °C.

With `CC(=O)c1c(Sc2cc(Cl)cc(Cl)c2)[nH]c2ccc(Cl)cc12`, the melting point was in the range of 180 to 185 °C.

In turn, `CCCC1(S(=O)(=O)CCCN2CCC(N3Cc4ccccc4C3=O)CC2)c2ccccc2-c2ccccc21` returned a melting point of 83 to 86 °C.

The compound `O=C(O)COC1=C(Cc2ccc3c(Cl)cccc3c2)C(=O)CCC1` displayed a melting point of 236 to 238 °C.

Compound `CC(=O)N(O)Cc1ccc(OCc2ccccc2)cc1` displayed a melting point of 119 to 120 °C.

Take `CCCCCCCC(=O)Oc1ccc(-c2ccc(C#N)cc2)cc1`: the melting point was in the range of 77.5 to 77.9 °C.

In turn, `COc1cccc(C2(O)CCN(C)CC2)c1` showed a melting point of 111 to 113 °C.

In the case of `COc1ccc(OCC(O)CN2CCC(N3CCNC3=O)CC2)cc1` (stereo not drawn), the melting point is 148 to 150 °C.

Turning to `CC#CCN=C(NC#N)NCCSCc1[nH]cnc1C`, the melting point lay in the range of 128 to 130 °C.

`COc1ccc(C(=O)NCc2c(C=O)cc(C)n2CCNC(C)=O)cc1OC` displayed a melting point of 165 to 167 °C.

`CCC(=O)c1cc(Cl)c(Cl)c2c1OCC(CO)O2` (stereo not drawn) returned a melting point of 121 to 123 °C.

In the case of `C=C(CNc1ccc2ncnc(Nc3cccc(Br)c3)c2c1)C(=O)OC`, the melting point lay within 157 to 162 °C.

In turn, `O=C1CC2CCSc3sccc3C2=NN1c1ccc(Cl)cc1` (stereo not drawn) came in with a melting point of 134 to 135 °C.

Take `c1ccc2c(c1)CCSO2`: the melting point was 119 to 120 °C.

Turning to `C#CCOc1ccc2cc(C(=O)OCC)c(=O)oc2c1`, the melting point turned out to be 252 °C.

As to `CC(=NOCC(=O)O)c1ccc(Cl)c(Cl)c1`, the melting point lay in the range of 128 to 129 °C.

In the case of `N#Cc1cnc2cnc(F)cc2c1Nc1cccc(Br)c1`, the melting point fell in the range of 185 to 195 °C.

`CCCCCCCCCCCCCCOc1ccc(C(=O)OC)cc1Cl`: the melting point was in the range of 42 to 43 °C.

For `CSc1ccc(Nc2cc(-c3nnc(C)o3)ccn2)cc1`, the melting point fell in the range of 203 to 204 °C.

`CCc1nc(C)cn1S(=O)(=O)c1c[nH]cn1` came in with a melting point of 147 to 148 °C.

`COc1ccc2ccc(N3C(=O)c4ccccc4C3OC(=O)Oc3ccccc3)nc2n1` (stereo not drawn) displayed a melting point of 145 °C.

The compound `CSc1c(C)cc(O)c(C(=O)Nc2ccc(S(=O)(=O)C(F)(F)F)cc2Cl)c1C` had a melting point of 201 to 202 °C.

`FC(F)(F)c1cc(Cl)c2nc(N3CCN(c4ncccc4C(F)(F)F)CC3)[nH]c2c1`: the melting point is 204 °C.

With `COc1ccc(C(=O)Nc2ccc(F)cc2)cc1Nc1cc(C)cc(C)c1`, the melting point fell in the range of 199 to 200 °C.

Compound `CCCc1c(CNc2ccc(C(=O)O)cc2)ccc(C(C)=O)c1O` showed a melting point of 202 to 204 °C.

Turning to `CCc1cc2c(Nc3nnc(C)s3)ncnc2s1`, the melting point was 277 to 280 °C.

With `Cn1c(Nc2cc(C(F)(F)F)ccc2Cl)nc(C(F)(F)F)cc1=O`, the melting point was in the range of 158 to 159 °C.

Compound `CC(=O)NC(C)(C)c1ccc(CN2CCN(c3ccccn3)CC2)cc1` showed a melting point of 129 to 130 °C.

Regarding `C=C(C)Oc1nc(NCCSCc2ccco2)ncc1Cc1ccc(C)nc1`, the melting point fell in the range of 47 to 48 °C.

In turn, `CCOC(=O)C1=C(C)Nc2nc(N3CCOCC3)nc(N3CCOCC3)c2C1c1ccccc1C#N` (stereo not drawn) displayed a melting point of 248 °C.

`COc1ccc(S(=O)(=O)N2C(=O)C(c3ccccc3OC)(N3CCC[C@H]3C(=O)N3CCC3)c3cc(Cl)ccc32)c(OC)c1` (stereo partly drawn) showed a melting point of 161 to 166 °C.

In turn, `CCOC(=O)C(=CNc1cc(=O)c2ccccc2o1)C(=O)OCC` showed a melting point of 138 to 140 °C.

In turn, `C#CC(O)c1csc(C)n1` (stereo not drawn) displayed a melting point of 94 °C.

`COC(=O)CCCCCCCCCCCCCCCNc1ccc(C(=O)OC)cc1` yielded a melting point of 92 to 93 °C.

`Nc1ccc(C(=O)CCCN2CCC(OC(=O)c3cc(Cl)c(N)c4c3OCC4)CC2)cc1N` returned a melting point of 173 °C.

In the case of `FC(F)(F)C1(c2cc(Cl)cc(Cl)c2)CC(c2cnc(Cl)c(Cl)c2)=NO1` (stereo not drawn), the melting point is 155 to 157 °C.

With `CC(=O)NC(Cc1ccccc1)C(=O)NC(Cc1ccccc1)C(=O)NC(Cc1c[nH]cn1)C(=O)O` (stereo not drawn) (Ac-Phe-Phe-His-OH; configuration not given here), the melting point was in the range of 143 to 145 °C.

The compound `Cc1ccccc1C(=O)N1CCC(=O)c2cc(F)c(Cl)cc21` gave a melting point of 84.9 to 88.7 °C.

`CC(=O)NC[C@H]1CN(c2ccc(N3CCN(C(=O)CCCC(=O)c4ccc(NC(=O)CN)cc4)CC3)c(F)c2)C(=O)O1`: the melting point is 178 to 181 °C.

Consider `Cc1oc(-c2ccccc2)nc1COc1ccc(COc2nn(Cc3ccccc3)cc2CCC(=O)O)cn1`, for which the melting point lay within 130 to 131 °C.

In turn, `COc1cc(Nc2nc3cccc(-c4ccc(C(=O)N(C)C)cc4)c3o2)cc(OC)c1OC` registered a melting point of more than 280 °C.

The compound `Fc1cccc(F)c1COCc1nc2ccccc2n1Cc1c(F)cccc1F` returned a melting point of 109 °C.

As for `O=C(Cc1ccc(Cl)cc1)c1cccc(S(=O)(=O)N2CCCCCC2)c1`, the melting point was in the range of 135 to 136 °C.

Compound `CC1ON(C)C(=O)C1=Cc1cc(C(C)(C)C)c(O)c(C(C)(C)C)c1` (stereo not drawn) returned a melting point of 147 to 150 °C.

`CCC(C)=NOC(=NC1CCCCC1)N(C(=O)c1ccccc1)C1CCCCC1`: the melting point lay within 74 to 78 °C.

As for `COC(=O)c1ccc(OC)c2cc(OC)ccc12`, the melting point lay within 102 to 104 °C.

Consider `Cc1ccc(S(=O)(=O)OC[C@H]2COc3ccc4nc(C)ccc4c3O2)cc1`, for which the melting point lay in the range of 115 to 117 °C.

In turn, `Cc1[nH]cnc1CSCCNC(=S)NC#N` yielded a melting point of 158 to 161 °C.

Compound `Oc1ccc2[nH]cc(C3CCN(CCCCc4c[nH]c5ccccc45)CC3)c2c1` gave a melting point of 178 to 180 °C.

In turn, `O=[N+]([O-])c1cccc(CO)c1I` yielded a melting point of 91 to 91.5 °C.

In the case of `N#CN1c2ccccc2CC(O)c2ccccc21` (stereo not drawn), the melting point is 117 to 118 °C.

On to `CCc1cccc(C)c1CNc1cc(C(=O)NC)nc2c1nc(C)n2C`, for which the melting point lay within 236 to 238 °C.

In the case of `Cc1ccc(S(=O)(=O)OCCc2ccc3cc(Br)ccc3n2)cc1`, the melting point was 107 to 109 °C.

Consider `CN1C(=O)c2ccccc2CC1C(=O)NC(Cc1c[nH]cn1)C(=O)N1CCCC1C(N)=O` (stereo not drawn), for which the melting point lay in the range of 140 to 145 °C.

In the case of `O=C1CCC2=C1C(c1ccc(F)c(Br)c1)C1=C(CCCCS1)N2` (stereo not drawn), the melting point stood at 210 °C.

For the compound `Cc1cc(C(=O)N2Cc3cccn3Cc3ccccc32)ccc1C1=CCC2CC1C2(C)C` (stereo not drawn), the melting point lay in the range of 139 to 140 °C.

With `CC#CCOc1ccc(S(=O)(=O)C2(C(=O)NO)CCN(Cc3cccnc3)CC2)cc1`, the melting point worked out at 115 °C.

As for `C[C@H](NC(=O)[C@@H](Cc1ccccc1)NS(=O)(=O)Cc1ccccc1)C(=O)NC1CCc2nc(N)sc2C1` (stereo partly drawn), the melting point is 122 to 125 °C.

With `Cc1nc(N2CCN(CC3CCCCO3)C2=O)sc1C(=O)NCc1cccnc1` (stereo not drawn), the melting point is 174 to 175 °C.

`Cc1cc2c(c(C)c1O)C(C)(C)CN2C(=O)C(C)(C)C`: the melting point was 143 to 144 °C.

As to `COc1ccc(-c2ccc(Cl)cc2)cc1OC1CCCC1`, the melting point lay in the range of 88 to 91 °C.

As for `COc1ccc(/C=N/Nc2cc(=O)[nH]c3cc(Cl)ccc23)cc1OC1CCCC1`, the melting point fell in the range of 210 to 212 °C.

As to `COc1ccccc1-n1c(-c2sc(Nc3ccc(Cl)cc3)nc2C)nc2ccccc2c1=O`, the melting point lay in the range of 225 to 226 °C.

In turn, `COCCOc1cc2ncnc(NC3=CC(=O)C(N4CCCCC4)=CC3=O)c2cc1OC` registered a melting point of 197 to 200 °C.

Consider `Cc1noc(C(=O)NCCc2ccc(S(N)(=O)=O)cc2)n1`, for which the melting point lay in the range of 218 to 220 °C.

In the case of `CNc1cc(C(F)(F)F)on1`, the melting point lay within 39 to 41 °C.

Take `CC1=CC(C)(C)Cc2c1nc(C(C)C)c(CO)c2-c1ccc(F)cc1`: the melting point fell in the range of 112 to 114 °C.

For `Cc1c(Cl)n(C2OC(CO)C(O)C2O)c2cc(Cl)c(Cl)cc12` (stereo not drawn), the melting point fell in the range of 190 to 191 °C.

Consider `COc1ccc2c(Cl)cc3nc(C(=O)O)cn3c2c1`, for which the melting point fell in the range of 277 to 278 °C.

In turn, `Cc1cc(C#N)cnc1C(=O)Nc1ccc(F)c([C@]2(C)CO[C@@](C)(C(F)(F)F)C(N)=N2)c1` showed a melting point of 101 to 102 °C.

Take `Nc1ccc(C23CC2C(=O)N(Cc2ccccc2)C3=O)cc1` (stereo not drawn): the melting point lay in the range of 147 to 149 °C.

In the case of `CCOC(=O)C(=Cc1cccc(OC)c1)C(=O)OCC`, the melting point was 45 °C.

`O=C(CBr)Nc1ccc(F)cc1C(=O)O` returned a melting point of 191 to 192 °C.

These data come from a melting point compilation (Tetko et al.; mined from patent text by program, amines drawn as free bases though some values may be those of a salt).
